test system: H82 cells; experiment: cells; assay type: cell-based; settings: Homo sapiens, NCI-H82, read-out: IC50 in H82 Cells
How it was run: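 H82 cells in RPMI1640 + 10% FBS exposed to compound (0.1% DMSO final) for 6 days at 37 °C, 5% CO2. Viability read by CellTiter-Glo ATP luminescence, normalised to DMSO and medium controls; IC50 from nonlinear regression of the dose–survival curve.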

Row | Compound | IC50 [µM]
1 | Cc1c(N2CC(C#Cc3cccc(Nc4ncc5c(n4)-c4ccc(Cl)cc4C(c4c(F)cccc4F)=NC5)c3)C2)cccc1N1CCC(=O)NC1=O [Compound A156] | 1 to 10
2 | O=C1CCN(c2ccc(N3CCC(O)(CN4CCN(C56CC(Nc7ncc8c(n7)-c7ccc(Cl)cc7C(c7c(F)cccc7F)=NC8)(C5)C6)C(=O)C4)CC3)nc2)C(=O)N1 [Compound A290] | < 1
3 | O=C1CCN(c2ccc(N3CCC(O)(CN4CCN(c5ccc(Nc6ncc7c(n6)-c6ccc(Cl)cc6C(c6c(F)cccc6F)=NC7)cc5)C(=O)C4)CC3)nc2)C(=O)N1 [Compound A300] | < 1
4 | O=C1CCN(c2cccc(N3CCC(C#Cc4cccc(Nc5ncc6c(n5)-c5ccc(Cl)cc5C(c5c(F)cccc5F)=NC6)c4)CC3)c2)C(=O)N1 [Compound A127] | < 1
5 | O=C1CCN(c2ccc(N3CCC(N4CCN(c5ccc(Nc6ncc7c(n6)-c6ccc(Cl)cc6C(c6c(F)cccc6F)=NC7)cc5)C(=O)C4)CC3)nc2)C(=O)N1 [Compound A132] | < 1
6 | O=C1CCN(c2ccc(N3CCC(N4CCN(c5ccc(Nc6ncc7c(n6)-c6ccc(Cl)cc6C(c6c(F)cccc6F)=NC7)cc5)CC4)C(F)(F)C3)nc2)C(=O)N1 (stereo not drawn) [Compound A263] | < 1

same assay, conditions: Homo sapiens, NCI-H82; H82 cells, 4000 cells/well, CellTiter-Glo; read-out: IC50 in H82 Cells

Row | Compound | IC50 [µM]
7 | O=C1CCN(c2ccc(N3CC4(CC(N5CCN(C67CC(Nc8ncc9c(n8)-c8ccc(Cl)cc8C(c8c(F)cccc8F)=NC9)(C6)C7)C(=O)C5)C4)C3)nc2)C(=O)N1 [Compound A298] | < 1
8 | O=C1CCN(c2cccc(N3CCC(N4CC(c5cccc(Nc6ncc7c(n6)-c6ccc(Cl)cc6C(c6c(F)cccc6F)=NC7)c5)C4)CC3)c2)C(=O)N1 [Compound A151] | < 1
9 | Cn1c(CN2CCN(c3ncc(N4CCC(=O)NC4=O)s3)CC2)cnc1-c1ccc(Nc2ncc3c(n2)-c2ccc(Cl)cc2C(c2c(F)cccc2F)=NC3)cc1 [Compound A149] | < 1
10 | O=C1CCN(c2cncc(N3CCN(CC#Cc4cccc(Nc5ncc6c(n5)-c5ccc(Cl)cc5C(c5c(F)cccc5F)=NC6)c4)CC3)c2)C(=O)N1 [Compound A131] | < 1
11 | O=C1CCN(c2ccc(N3CCC(CN4CCN(C56CC(Nc7ncc8c(n7)-c7ccc(Cl)cc7C(c7c(F)cccc7F)=NC8)(C5)C6)C(=O)C4)CC3)nc2)C(=O)N1 [Compound A250] | < 1
12 | O=C1CCN(c2ccc(N3CCN(C(=O)N4CCN(C56CC(Nc7ncc8c(n7)-c7ccc(Cl)cc7C(c7c(F)cccc7F)=NC8)(C5)C6)CC4)CC3)nc2)C(=O)N1 [Compound A255] | < 1

target: T1, AURKA (Homo sapiens, UniProt O14965); experiment: not given; assay type: cell-based; settings: not given
T1 construct: endogenous in cells; host or cells: Jurkat cells
T1 sequence (O14965 1-403): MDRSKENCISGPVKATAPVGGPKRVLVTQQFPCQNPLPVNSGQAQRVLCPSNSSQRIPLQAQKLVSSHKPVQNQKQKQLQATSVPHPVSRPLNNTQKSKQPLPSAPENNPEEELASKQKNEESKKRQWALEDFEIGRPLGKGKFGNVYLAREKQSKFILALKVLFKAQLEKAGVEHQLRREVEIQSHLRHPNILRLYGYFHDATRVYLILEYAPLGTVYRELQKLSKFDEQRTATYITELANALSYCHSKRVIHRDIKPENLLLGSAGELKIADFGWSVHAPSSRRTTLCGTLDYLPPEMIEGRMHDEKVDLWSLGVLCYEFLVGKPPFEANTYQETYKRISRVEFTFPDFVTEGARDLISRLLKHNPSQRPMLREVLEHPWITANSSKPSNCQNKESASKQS
How it was run: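 Jurkat cells seeded at 1×10^6 cells/500 µL and treated with compound; lysates run on SDS-PAGE, blotted to nitrocellulose and probed overnight at 4°C for AURKA. Chemiluminescent or fluorescent band intensity fitted to a curve to give DC50 for protein degradation.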

Row | Compound | Percentage of AURKA Degradation Induced by 100 nM Compound in Jurkat Cells | Percentage of AURKA Degradation Induced by 1 µM Compound in Jurkat Cells
13 | Cc1c(N2CC(C#Cc3cccc(Nc4ncc5c(n4)-c4ccc(Cl)cc4C(c4c(F)cccc4F)=NC5)c3)C2)cccc1N1CCC(=O)NC1=O [Compound A156] | + (key: +: Degradation ≤ 30%; ++: 30% < Degradation ≤ 70%; +++: Degradation > 70%) | + (key: +: Degradation ≤ 30%; ++: 30% < Degradation ≤ 70%; +++: Degradation > 70%)
14 | O=C1CCN(c2ccc(N3CCC(O)(CN4CCN(C56CC(Nc7ncc8c(n7)-c7ccc(Cl)cc7C(c7c(F)cccc7F)=NC8)(C5)C6)C(=O)C4)CC3)nc2)C(=O)N1 [Compound A290] | ++ (key: +: Degradation ≤ 30%; ++: 30% < Degradation ≤ 70%; +++: Degradation > 70%) | +++ (key: +: Degradation ≤ 30%; ++: 30% < Degradation ≤ 70%; +++: Degradation > 70%)
15 | O=C1CCN(c2ccc(N3CCC(O)(CN4CCN(c5ccc(Nc6ncc7c(n6)-c6ccc(Cl)cc6C(c6c(F)cccc6F)=NC7)cc5)C(=O)C4)CC3)nc2)C(=O)N1 [Compound A300] | +++ (key: +: Degradation ≤ 30%; ++: 30% < Degradation ≤ 70%; +++: Degradation > 70%) | +++ (key: +: Degradation ≤ 30%; ++: 30% < Degradation ≤ 70%; +++: Degradation > 70%)
16 | O=C1CCN(c2cccc(N3CCC(C#Cc4cccc(Nc5ncc6c(n5)-c5ccc(Cl)cc5C(c5c(F)cccc5F)=NC6)c4)CC3)c2)C(=O)N1 [Compound A127] | +++ (key: +: Degradation ≤ 30%; ++: 30% < Degradation ≤ 70%; +++: Degradation > 70%) | +++ (key: +: Degradation ≤ 30%; ++: 30% < Degradation ≤ 70%; +++: Degradation > 70%)
17 | O=C1CCN(c2ccc(N3CCC(N4CCN(c5ccc(Nc6ncc7c(n6)-c6ccc(Cl)cc6C(c6c(F)cccc6F)=NC7)cc5)C(=O)C4)CC3)nc2)C(=O)N1 [Compound A132] | +++ (key: +: Degradation ≤ 30%; ++: 30% < Degradation ≤ 70%; +++: Degradation > 70%) | +++ (key: +: Degradation ≤ 30%; ++: 30% < Degradation ≤ 70%; +++: Degradation > 70%)

same assay, conditions: 100 nM compound, Jurkat cells, 24 h, Table 2

Row | Compound | Percentage of AURKA Degradation Induced by 100 nM Compound in Jurkat Cells
18 | O=C1CCN(c2ccc(N3CC4(CC(N5CCN(C67CC(Nc8ncc9c(n8)-c8ccc(Cl)cc8C(c8c(F)cccc8F)=NC9)(C6)C7)C(=O)C5)C4)C3)nc2)C(=O)N1 [Compound A298] | +++ (Degradation > 70%)
19 | O=C1CCN(c2cccc(N3CCC(N4CC(c5cccc(Nc6ncc7c(n6)-c6ccc(Cl)cc6C(c6c(F)cccc6F)=NC7)c5)C4)CC3)c2)C(=O)N1 [Compound A151] | ++ (30% < Degradation ≤ 70%)
20 | Cn1c(CN2CCN(c3ncc(N4CCC(=O)NC4=O)s3)CC2)cnc1-c1ccc(Nc2ncc3c(n2)-c2ccc(Cl)cc2C(c2c(F)cccc2F)=NC3)cc1 [Compound A149] | +++ (Degradation > 70%)
21 | O=C1CCN(c2cncc(N3CCN(CC#Cc4cccc(Nc5ncc6c(n5)-c5ccc(Cl)cc5C(c5c(F)cccc5F)=NC6)c4)CC3)c2)C(=O)N1 [Compound A131] | +++ (Degradation > 70%)
22 | O=C1CCN(c2ccc(N3CCC(CN4CCN(C56CC(Nc7ncc8c(n7)-c7ccc(Cl)cc7C(c7c(F)cccc7F)=NC8)(C5)C6)C(=O)C4)CC3)nc2)C(=O)N1 [Compound A250] | +++ (Degradation > 70%)
23 | O=C1CCN(c2ccc(N3CCN(C(=O)N4CCN(C56CC(Nc7ncc8c(n7)-c7ccc(Cl)cc7C(c7c(F)cccc7F)=NC8)(C5)C6)CC4)CC3)nc2)C(=O)N1 [Compound A255] | ++ (30% < Degradation ≤ 70%)
24 | O=C1CCN(c2ccc(N3CCC(N4CCN(c5ccc(Nc6ncc7c(n6)-c6ccc(Cl)cc6C(c6c(F)cccc6F)=NC7)cc5)CC4)C(F)(F)C3)nc2)C(=O)N1 (stereo not drawn) [Compound A263] | +++ (Degradation > 70%)

same assay, conditions: 1 µM compound, Jurkat cells, 24 h, Table 2

Row | Compound | Percentage of AURKA Degradation Induced by 1 µM Compound in Jurkat Cells
25 | O=C1CCN(c2ccc(N3CC4(CC(N5CCN(C67CC(Nc8ncc9c(n8)-c8ccc(Cl)cc8C(c8c(F)cccc8F)=NC9)(C6)C7)C(=O)C5)C4)C3)nc2)C(=O)N1 [Compound A298] | +++ (Degradation > 70%)
26 | O=C1CCN(c2cccc(N3CCC(N4CC(c5cccc(Nc6ncc7c(n6)-c6ccc(Cl)cc6C(c6c(F)cccc6F)=NC7)c5)C4)CC3)c2)C(=O)N1 [Compound A151] | + (Degradation ≤ 30%)
27 | Cn1c(CN2CCN(c3ncc(N4CCC(=O)NC4=O)s3)CC2)cnc1-c1ccc(Nc2ncc3c(n2)-c2ccc(Cl)cc2C(c2c(F)cccc2F)=NC3)cc1 [Compound A149] | +++ (Degradation > 70%)
28 | O=C1CCN(c2cncc(N3CCN(CC#Cc4cccc(Nc5ncc6c(n5)-c5ccc(Cl)cc5C(c5c(F)cccc5F)=NC6)c4)CC3)c2)C(=O)N1 [Compound A131] | +++ (Degradation > 70%)
29 | O=C1CCN(c2ccc(N3CCC(CN4CCN(C56CC(Nc7ncc8c(n7)-c7ccc(Cl)cc7C(c7c(F)cccc7F)=NC8)(C5)C6)C(=O)C4)CC3)nc2)C(=O)N1 [Compound A250] | +++ (Degradation > 70%)
30 | O=C1CCN(c2ccc(N3CCN(C(=O)N4CCN(C56CC(Nc7ncc8c(n7)-c7ccc(Cl)cc7C(c7c(F)cccc7F)=NC8)(C5)C6)CC4)CC3)nc2)C(=O)N1 [Compound A255] | ++ (30% < Degradation ≤ 70%)
31 | O=C1CCN(c2ccc(N3CCC(N4CCN(c5ccc(Nc6ncc7c(n6)-c6ccc(Cl)cc6C(c6c(F)cccc6F)=NC7)cc5)CC4)C(F)(F)C3)nc2)C(=O)N1 (stereo not drawn) [Compound A263] | +++ (Degradation > 70%)
